Results reported in article PMC4453511 (mBio, 2015).

Molecular target: Rv1026/PPX2 (6×His-Rv1026) (Mycobacterium tuberculosis, UniProt P96374)
Sequence (P96374 whole entry): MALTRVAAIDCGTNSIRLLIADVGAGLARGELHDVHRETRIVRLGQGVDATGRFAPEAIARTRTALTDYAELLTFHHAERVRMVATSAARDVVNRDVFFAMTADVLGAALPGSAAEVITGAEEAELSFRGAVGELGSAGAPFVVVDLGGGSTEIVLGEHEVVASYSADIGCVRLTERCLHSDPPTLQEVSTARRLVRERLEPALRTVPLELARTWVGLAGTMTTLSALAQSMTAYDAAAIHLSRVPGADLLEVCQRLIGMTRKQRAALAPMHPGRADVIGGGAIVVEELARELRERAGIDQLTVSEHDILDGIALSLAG

Row | Structure (SMILES) | DAPI-based poly(P) hydrolysis assay
1 | Nc1ncnc2c1ncn2[C@@H]1O[C@H](COP(=O)(O)OP(=O)(O)O)[C@@H](O)[C@H]1O [ADP] | accelerated when recombinant protein was incubated with AMP/ADP and GMP/GDP
2 | Nc1ncnc2c1ncn2[C@@H]1O[C@H](COP(=O)(O)O)[C@@H](O)[C@H]1O [AMP] | accelerated when recombinant protein was incubated with AMP/ADP and GMP/GDP
3 | Nc1nc2c(ncn2[C@@H]2O[C@H](COP(=O)(O)OP(=O)(O)O)[C@@H](O)[C@H]2O)c(=O)[nH]1 [GDP] | accelerated when recombinant protein was incubated with AMP/ADP and GMP/GDP
4 | Nc1nc2c(ncn2[C@@H]2O[C@H](COP(=O)(O)O)[C@@H](O)[C@H]2O)c(=O)[nH]1 [GMP] | accelerated when recombinant protein was incubated with AMP/ADP and GMP/GDP
